Target: T1, MMP-13 (Homo sapiens, UniProt P45452)
T1 construct: purchased Reaction Biology Corporation, Malvern, PA, USA (contract assay service)
Experiment: MMP-13 in vitro inhibition assay (FRET peptide substrate)
Assay type: biochemical
Settings: for LE (Ligand Efficiency): 1.4(−logIC50)/N, N = number of non-hydrogen atoms; for LLE (lipophilic ligand efficiency): LLE = pIC50 - clogP; for remaining activity at 10 µM: at 10 μM inhibitor concentration, read-out: % Activity (remaining enzyme activity); for remaining activity at 10 µM / IC50: triplicate; for IC50: 10 concentrations starting at 10 μM
Protocol: Consecutively the synthesized compounds were tested for their inhibition activity against MMP-13 in in vitro assays. The values are averaged over triplicate determinations (Table 1).
The substrate used for the determinations was the (5-FAM/QXLTM) FRET peptide. The buffer consisted of 50 mM HEPES at pH 7.5 with 10 mM CaCl2 and 0.01% Brij-35. 0.1 mg/mL BSA was added before use. As a control inhibitor GM6001 was used.

CS(=O)(=O)NC(=O)CCCCOc1cccc(CC(=O)Nc2ccc3c(c2)C(=O)N(Cc2ccccc2)C3=O)c1 [Compound 4, 5-(3-{[(2-benzyl-1,3-dioxo-2,3-dihydro-1H-isoindol-5-yl)carbamoyl]methyl}phenoxy)-N-methanesulfonylpentanamide]
LE (Ligand Efficiency): 0.21 | LLE (lipophilic ligand efficiency): 2.53 | remaining activity at 10 µM: 13.8 ± 1.4% | IC50: 767 ± 80 nM

O=C(O)CCOc1cccc(CC(=O)Nc2ccc3c(c2)C(=O)N(Cc2ccccc2)C3=O)c1 [Compound 14, 3-(3-{[(2-benzyl-1,3-dioxo-2,3-dihydro-1H-isoindol-5-yl)carbamoyl]methyl}phenoxy)propanoic acid]
remaining activity at 10 µM: 15.4 ± 0.3%

CS(=O)(=O)NC(=O)CCCOc1cccc(CC(=O)Nc2ccc3c(c2)C(=O)N(Cc2ccccc2)C3=O)c1 [Compound 18, 4-(3-{[(2-benzyl-1,3-dioxo-2,3-dihydro-1H-isoindol-5-yl)carbamoyl]methyl}phenoxy)-N-methanesulfonylbutanamide]
LE (Ligand Efficiency): 0.22 | LLE (lipophilic ligand efficiency): 2.91 | remaining activity at 10 µM: 11.2 ± 0.3% | IC50: 896 ± 60 nM

O=C(Cc1cccc(OCCCCCCO)c1)Nc1ccc2c(c1)C(=O)N(Cc1ccccc1)C2=O [Compound 13, N-(2-benzyl-1,3-dioxo-2,3-dihydro-1H-isoindol-5-yl)-2-{3-[(6-hydroxyhexyl)oxy]phenyl}acetamide]
remaining activity at 10 µM: 33 ± 2.9%

O=C(O)CCCCOc1cccc(CC(=O)Nc2ccc3c(c2)C(=O)N(Cc2ccccc2)C3=O)c1 [Compound 3, 5-(3-{[(2-benzyl-1,3-dioxo-2,3-dihydro-1H-isoindol-5-yl)carbamoyl]methyl}phenoxy)pentanoic acid]
LE (Ligand Efficiency): 0.27 | LLE (lipophilic ligand efficiency): 2.46 | remaining activity at 10 µM: 2.4 ± 0.1% | IC50: 134 ± 40 nM

O=C(Cc1cccc(OCCCO)c1)Nc1ccc2c(c1)C(=O)N(Cc1ccccc1)C2=O [Compound 11, N-(2-benzyl-1,3-dioxo-2,3-dihydro-1H-isoindol-5-yl)-2-[3-(3-hydroxypropoxy)phenyl]acetamide]
LE (Ligand Efficiency): 0.26 | LLE (lipophilic ligand efficiency): 2.55 | remaining activity at 10 µM: 7.9 ± 0.4% | IC50: 586 ± 130 nM

CNC(=O)CCCCOc1cccc(CC(=O)Nc2ccc3c(c2)C(=O)N(Cc2ccccc2)C3=O)c1 [Compound 5, 5-(3-{[(2-benzyl-1,3-dioxo-2,3-dihydro-1H-isoindol-5-yl)carbamoyl]methyl}phenoxy)-N-methylpentanamide]
LE (Ligand Efficiency): 0.25 | LLE (lipophilic ligand efficiency): 2.45 | remaining activity at 10 µM: 6.7 ± 0.5% | IC50: 328 ± 50 nM

O=C(O)CCCCCOc1cccc(CC(=O)Nc2ccc3c(c2)C(=O)N(Cc2ccccc2)C3=O)c1 [Compound 16, 6-(3-{[(2-benzyl-1,3-dioxo-2,3-dihydro-1H-isoindol-5-yl)carbamoyl]methyl}phenoxy)hexanoic acid]
LE (Ligand Efficiency): 0.25 | LLE (lipophilic ligand efficiency): 1.70 | remaining activity at 10 µM: 2.6 ± 0.3% | IC50: 280 ± 40 nM

O=C(O)CCCOc1cccc(CC(=O)Nc2ccc3c(c2)C(=O)N(Cc2ccccc2)C3=O)c1 [Compound 15, 4-(3-{[(2-benzyl-1,3-dioxo-2,3-dihydro-1H-isoindol-5-yl)carbamoyl]methyl}phenoxy)butanoic acid]
LE (Ligand Efficiency): 0.24 | LLE (lipophilic ligand efficiency): 2.16 | remaining activity at 10 µM: 4.6 ± 0.6% | IC50: 777 ± 50 nM

CS(=O)(=O)NC(=O)CCOc1cccc(CC(=O)Nc2ccc3c(c2)C(=O)N(Cc2ccccc2)C3=O)c1 [Compound 17, 3-(3-{[(2-benzyl-1,3-dioxo-2,3-dihydro-1H-isoindol-5-yl)carbamoyl]methyl}phenoxy)-N-methanesulfonylpropanamide]
remaining activity at 10 µM: 30.5 ± 0.8%

O=C(Cc1cccc(OCCCCO)c1)Nc1ccc2c(c1)C(=O)N(Cc1ccccc1)C2=O [Compound 12, N-(2-benzyl-1,3-dioxo-2,3-dihydro-1H-isoindol-5-yl)-2-[3-(4-hydroxybutoxy)phenyl]acetamide]
LE (Ligand Efficiency): 0.26 | LLE (lipophilic ligand efficiency): 2.22 | remaining activity at 10 µM: 7.6 ± 0.5% | IC50: 454 ± 200 nM

O=C(Cc1cccc(OCCCCCO)c1)Nc1ccc2c(c1)C(=O)N(Cc1ccccc1)C2=O [Compound 2, N-(2-benzyl-1,3-dioxo-2,3-dihydro-1H-isoindol-5-yl)-2-{3-[(5-hydroxypentyl)oxy]phenyl}acetamide]
LE (Ligand Efficiency): 0.24 | LLE (lipophilic ligand efficiency): 1.53 | remaining activity at 10 µM: 9.1 ± 0.9% | IC50: 822 ± 210 nM
